Assay results as given in ChEMBL document CHEMBL1743141, “Membrane transporters in drug development” (Nat Rev Drug Discov, 2010).
Square brackets hold non-standard residues; d marks the D form. Peptide text beside a SMILES is read from it. Sar = CNCC(=O)O

What was measured:
Format in all cases: ADME
[1] = biological target: ATP-dependent translocase ABCB1 (Homo sapiens, UniProt P08183); assay: Substrates of transporters of clinical importance in the absorption and disposition of drugs, MDR1
[2] = biological target: T1, Solute carrier family 15 member 2 (Homo sapiens, UniProt Q16348); assay: Substrates of transporters of clinical importance in the absorption and disposition of drugs, PEPT2
T1 sequence (Q16348 whole entry): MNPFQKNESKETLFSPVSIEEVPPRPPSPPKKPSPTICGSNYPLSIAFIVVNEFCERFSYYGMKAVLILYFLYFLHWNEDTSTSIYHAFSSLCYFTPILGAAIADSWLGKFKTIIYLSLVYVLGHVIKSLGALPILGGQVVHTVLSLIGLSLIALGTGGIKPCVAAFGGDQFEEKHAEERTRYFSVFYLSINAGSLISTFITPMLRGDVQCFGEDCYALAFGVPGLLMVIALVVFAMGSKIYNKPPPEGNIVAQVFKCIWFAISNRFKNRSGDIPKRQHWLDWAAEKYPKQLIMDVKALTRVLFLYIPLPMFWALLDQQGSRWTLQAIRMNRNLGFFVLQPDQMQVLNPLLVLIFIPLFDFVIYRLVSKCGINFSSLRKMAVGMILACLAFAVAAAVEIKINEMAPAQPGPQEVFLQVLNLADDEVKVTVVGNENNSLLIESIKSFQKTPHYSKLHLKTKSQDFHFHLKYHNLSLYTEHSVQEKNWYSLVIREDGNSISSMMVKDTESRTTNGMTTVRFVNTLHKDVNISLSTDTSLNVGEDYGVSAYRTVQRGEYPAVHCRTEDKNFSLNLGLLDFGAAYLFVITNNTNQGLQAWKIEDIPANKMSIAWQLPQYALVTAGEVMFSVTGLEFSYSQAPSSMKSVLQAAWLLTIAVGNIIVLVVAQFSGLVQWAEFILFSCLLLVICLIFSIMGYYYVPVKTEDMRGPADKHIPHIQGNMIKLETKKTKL

[3] = biological target: T2, Solute carrier family 15 member 1 (Homo sapiens, UniProt P46059); assay: Substrates of transporters of clinical importance in the absorption and disposition of drugs, PEPT1
T2 sequence (P46059 whole entry): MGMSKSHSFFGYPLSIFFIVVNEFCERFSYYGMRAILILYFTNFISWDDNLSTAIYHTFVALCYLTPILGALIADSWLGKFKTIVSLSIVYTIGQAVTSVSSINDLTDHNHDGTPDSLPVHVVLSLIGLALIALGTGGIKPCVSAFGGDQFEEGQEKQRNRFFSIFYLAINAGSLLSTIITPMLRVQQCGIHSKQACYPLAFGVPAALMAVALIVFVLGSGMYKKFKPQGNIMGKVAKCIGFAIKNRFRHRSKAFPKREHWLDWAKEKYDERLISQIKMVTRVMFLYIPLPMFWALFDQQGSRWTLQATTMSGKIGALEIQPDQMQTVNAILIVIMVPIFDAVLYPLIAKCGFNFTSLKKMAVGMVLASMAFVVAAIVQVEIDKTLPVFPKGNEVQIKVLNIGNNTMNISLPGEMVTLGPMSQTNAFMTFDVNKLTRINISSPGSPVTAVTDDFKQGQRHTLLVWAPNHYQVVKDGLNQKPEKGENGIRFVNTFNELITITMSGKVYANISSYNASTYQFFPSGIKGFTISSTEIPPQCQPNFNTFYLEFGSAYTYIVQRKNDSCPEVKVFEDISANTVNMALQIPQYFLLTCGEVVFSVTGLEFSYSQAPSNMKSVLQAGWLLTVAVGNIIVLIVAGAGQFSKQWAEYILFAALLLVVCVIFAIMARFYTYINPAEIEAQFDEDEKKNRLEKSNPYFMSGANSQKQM

[4] = biological target: ATP-binding cassette sub-family C member 2 (Homo sapiens, UniProt Q92887); assay: Substrates of transporters of clinical importance in the absorption and disposition of drugs, MRP2
[5] = biological target: T3, ATP-binding cassette sub-family C member 4 (Homo sapiens, UniProt O15439); assay: Substrates of transporters of clinical importance in the absorption and disposition of drugs, MRP4
T3 sequence (O15439 whole entry): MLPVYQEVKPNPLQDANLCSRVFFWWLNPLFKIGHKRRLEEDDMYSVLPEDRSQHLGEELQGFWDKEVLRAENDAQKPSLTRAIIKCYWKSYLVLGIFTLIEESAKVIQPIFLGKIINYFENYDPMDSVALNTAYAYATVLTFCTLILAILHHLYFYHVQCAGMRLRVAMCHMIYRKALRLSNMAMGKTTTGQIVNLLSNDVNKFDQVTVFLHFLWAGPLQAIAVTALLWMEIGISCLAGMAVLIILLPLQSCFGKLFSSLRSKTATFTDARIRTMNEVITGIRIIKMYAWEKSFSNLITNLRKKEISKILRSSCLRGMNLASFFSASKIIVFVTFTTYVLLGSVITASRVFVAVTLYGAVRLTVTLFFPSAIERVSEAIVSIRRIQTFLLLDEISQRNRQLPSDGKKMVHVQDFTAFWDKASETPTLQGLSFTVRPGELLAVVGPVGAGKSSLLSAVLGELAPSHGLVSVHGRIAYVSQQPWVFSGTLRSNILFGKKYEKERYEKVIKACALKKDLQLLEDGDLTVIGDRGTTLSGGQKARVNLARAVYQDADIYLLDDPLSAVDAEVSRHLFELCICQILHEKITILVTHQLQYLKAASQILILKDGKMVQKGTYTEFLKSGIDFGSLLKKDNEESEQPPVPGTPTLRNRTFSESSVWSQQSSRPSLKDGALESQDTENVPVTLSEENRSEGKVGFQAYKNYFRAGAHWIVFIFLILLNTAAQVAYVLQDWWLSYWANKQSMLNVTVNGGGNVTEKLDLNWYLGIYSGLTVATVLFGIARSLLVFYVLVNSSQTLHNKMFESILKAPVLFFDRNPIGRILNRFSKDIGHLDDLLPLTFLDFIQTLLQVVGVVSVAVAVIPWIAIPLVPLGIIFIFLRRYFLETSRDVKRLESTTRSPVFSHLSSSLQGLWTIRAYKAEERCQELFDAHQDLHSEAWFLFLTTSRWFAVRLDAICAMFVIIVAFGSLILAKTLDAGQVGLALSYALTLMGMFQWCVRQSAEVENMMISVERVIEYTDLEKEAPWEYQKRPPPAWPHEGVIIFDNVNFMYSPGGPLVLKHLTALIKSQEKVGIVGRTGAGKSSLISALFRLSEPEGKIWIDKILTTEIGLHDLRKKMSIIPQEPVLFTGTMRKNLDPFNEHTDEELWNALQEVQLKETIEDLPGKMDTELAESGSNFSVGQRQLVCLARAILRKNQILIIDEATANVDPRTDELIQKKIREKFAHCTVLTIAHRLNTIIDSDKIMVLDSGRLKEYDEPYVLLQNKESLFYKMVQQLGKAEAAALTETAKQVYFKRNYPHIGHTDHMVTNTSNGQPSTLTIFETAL

[6] = biological target: T4, Solute carrier organic anion transporter family member 1A2 (Homo sapiens, UniProt P46721); assay: Substrates of transporters of clinical importance in the absorption and disposition of drugs, OATP1A2
T4 sequence (P46721 whole entry): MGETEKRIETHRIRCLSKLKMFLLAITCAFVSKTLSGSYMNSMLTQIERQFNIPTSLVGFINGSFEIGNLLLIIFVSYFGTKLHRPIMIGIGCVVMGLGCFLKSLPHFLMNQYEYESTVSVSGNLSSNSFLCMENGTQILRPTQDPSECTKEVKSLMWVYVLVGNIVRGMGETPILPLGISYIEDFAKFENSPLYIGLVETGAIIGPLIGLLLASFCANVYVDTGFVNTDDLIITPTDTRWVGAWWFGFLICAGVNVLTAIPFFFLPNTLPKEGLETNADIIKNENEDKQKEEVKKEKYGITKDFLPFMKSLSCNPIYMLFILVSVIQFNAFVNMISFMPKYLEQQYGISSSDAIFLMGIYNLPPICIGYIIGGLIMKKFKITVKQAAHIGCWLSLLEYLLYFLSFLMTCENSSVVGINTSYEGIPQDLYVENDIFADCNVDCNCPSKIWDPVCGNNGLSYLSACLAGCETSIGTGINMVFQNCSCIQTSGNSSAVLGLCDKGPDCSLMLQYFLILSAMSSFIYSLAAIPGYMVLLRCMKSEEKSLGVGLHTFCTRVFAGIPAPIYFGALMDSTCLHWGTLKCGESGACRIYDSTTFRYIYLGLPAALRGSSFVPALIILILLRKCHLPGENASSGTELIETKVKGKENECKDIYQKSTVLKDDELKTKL

Sequence of ATP-dependent translocase ABCB1 (P08183 whole entry): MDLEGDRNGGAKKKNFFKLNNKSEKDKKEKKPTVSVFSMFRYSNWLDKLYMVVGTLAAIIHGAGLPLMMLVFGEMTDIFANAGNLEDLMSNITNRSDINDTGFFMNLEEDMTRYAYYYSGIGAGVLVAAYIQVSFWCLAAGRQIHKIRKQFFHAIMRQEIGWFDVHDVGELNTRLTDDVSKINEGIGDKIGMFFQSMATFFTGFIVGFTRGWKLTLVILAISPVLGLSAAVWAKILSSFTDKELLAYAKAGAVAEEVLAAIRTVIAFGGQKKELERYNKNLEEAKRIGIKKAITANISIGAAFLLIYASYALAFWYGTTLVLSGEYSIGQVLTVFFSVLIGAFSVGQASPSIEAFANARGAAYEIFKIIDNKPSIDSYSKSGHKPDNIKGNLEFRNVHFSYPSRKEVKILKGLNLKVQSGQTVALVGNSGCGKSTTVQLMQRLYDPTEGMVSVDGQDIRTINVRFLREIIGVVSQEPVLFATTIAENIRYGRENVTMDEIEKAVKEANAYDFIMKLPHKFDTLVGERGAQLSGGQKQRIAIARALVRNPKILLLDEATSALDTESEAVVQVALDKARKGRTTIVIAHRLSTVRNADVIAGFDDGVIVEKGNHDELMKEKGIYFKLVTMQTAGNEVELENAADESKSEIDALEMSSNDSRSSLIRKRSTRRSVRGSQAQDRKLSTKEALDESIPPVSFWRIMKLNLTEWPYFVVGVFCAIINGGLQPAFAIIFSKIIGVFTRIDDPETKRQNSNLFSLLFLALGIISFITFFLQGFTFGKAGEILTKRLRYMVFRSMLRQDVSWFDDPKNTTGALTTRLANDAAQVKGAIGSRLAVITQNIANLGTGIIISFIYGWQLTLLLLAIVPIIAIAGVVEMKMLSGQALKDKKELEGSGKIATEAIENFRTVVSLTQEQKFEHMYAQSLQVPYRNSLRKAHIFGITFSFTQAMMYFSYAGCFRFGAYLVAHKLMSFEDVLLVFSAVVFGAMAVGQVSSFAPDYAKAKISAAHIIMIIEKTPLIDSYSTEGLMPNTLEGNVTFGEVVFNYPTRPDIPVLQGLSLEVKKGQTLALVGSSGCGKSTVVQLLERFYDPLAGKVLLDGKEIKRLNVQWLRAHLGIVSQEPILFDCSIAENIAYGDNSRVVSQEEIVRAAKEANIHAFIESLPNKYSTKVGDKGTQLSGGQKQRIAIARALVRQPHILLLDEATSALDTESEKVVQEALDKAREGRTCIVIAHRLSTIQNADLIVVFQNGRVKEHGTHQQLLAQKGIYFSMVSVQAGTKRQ
Sequence of ATP-binding cassette sub-family C member 2 (Q92887 whole entry): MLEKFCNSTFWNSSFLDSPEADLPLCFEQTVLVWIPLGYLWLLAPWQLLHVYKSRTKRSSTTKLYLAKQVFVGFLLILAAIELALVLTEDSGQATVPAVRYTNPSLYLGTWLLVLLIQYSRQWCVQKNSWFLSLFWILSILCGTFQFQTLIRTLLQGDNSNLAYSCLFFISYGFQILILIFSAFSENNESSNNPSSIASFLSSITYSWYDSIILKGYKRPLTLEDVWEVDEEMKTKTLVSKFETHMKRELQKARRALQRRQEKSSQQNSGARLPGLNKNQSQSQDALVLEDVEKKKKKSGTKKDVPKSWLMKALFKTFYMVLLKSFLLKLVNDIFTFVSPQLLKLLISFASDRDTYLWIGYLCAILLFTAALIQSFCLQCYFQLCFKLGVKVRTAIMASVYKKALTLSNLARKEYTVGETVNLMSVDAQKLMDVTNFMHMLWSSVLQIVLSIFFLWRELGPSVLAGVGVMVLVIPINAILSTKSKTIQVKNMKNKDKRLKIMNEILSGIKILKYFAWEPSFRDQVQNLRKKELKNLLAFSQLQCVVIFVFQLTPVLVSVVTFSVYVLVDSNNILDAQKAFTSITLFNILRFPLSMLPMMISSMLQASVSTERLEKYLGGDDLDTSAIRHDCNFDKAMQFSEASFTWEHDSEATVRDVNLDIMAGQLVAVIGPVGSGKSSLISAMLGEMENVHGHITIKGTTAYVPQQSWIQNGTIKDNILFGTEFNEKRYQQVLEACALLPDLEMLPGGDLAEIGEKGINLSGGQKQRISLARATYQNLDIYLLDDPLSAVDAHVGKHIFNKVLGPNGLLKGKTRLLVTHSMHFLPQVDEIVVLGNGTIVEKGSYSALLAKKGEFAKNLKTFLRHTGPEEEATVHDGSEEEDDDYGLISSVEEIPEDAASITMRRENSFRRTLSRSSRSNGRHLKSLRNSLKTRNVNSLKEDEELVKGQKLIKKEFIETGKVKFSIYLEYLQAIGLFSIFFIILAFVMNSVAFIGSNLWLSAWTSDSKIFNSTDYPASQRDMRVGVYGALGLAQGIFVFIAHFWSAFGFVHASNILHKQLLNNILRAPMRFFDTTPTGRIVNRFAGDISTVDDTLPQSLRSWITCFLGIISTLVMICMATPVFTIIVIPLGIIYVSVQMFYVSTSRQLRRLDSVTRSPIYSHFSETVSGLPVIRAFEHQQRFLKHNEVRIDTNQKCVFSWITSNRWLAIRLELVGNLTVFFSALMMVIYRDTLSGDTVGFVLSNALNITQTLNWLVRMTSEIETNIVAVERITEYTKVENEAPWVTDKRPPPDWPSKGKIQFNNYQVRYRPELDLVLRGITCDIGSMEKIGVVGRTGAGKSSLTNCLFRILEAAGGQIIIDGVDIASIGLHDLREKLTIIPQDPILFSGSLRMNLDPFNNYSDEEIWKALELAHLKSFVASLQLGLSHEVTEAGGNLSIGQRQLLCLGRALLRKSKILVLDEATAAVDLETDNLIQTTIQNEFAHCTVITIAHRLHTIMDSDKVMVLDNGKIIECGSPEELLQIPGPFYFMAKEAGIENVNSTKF

SMILES	Activity [2]	Activity [3]	also measured
COc1ccc2cc3[n+](cc2c1OC)CCc1cc2c(cc1-3)OCO2.[Cl-] [BERBERINE CHLORIDE]			Activity [1]: transporter substrate
CC1=C(C(=O)O)N2C(=O)[C@@H](NC(=O)[C@H](N)c3ccc(O)cc3)[C@H]2SC1 [CEFADROXIL]	transporter substrate	transporter substrate	
CCc1c2c(nc3ccc(OC[C@@H]4O[C@H](C(=O)O)[C@@H](O)[C@H](O)[C@H]4O)cc13)-c1cc3c(c(=O)n1C2)COC(=O)[C@]3(O)CC			Activity [4]: transporter substrate
CC(C)C[C@H](NC(=O)[C@@H](O)[C@H](N)Cc1ccccc1)C(=O)O [UBENIMEX]	transporter substrate	transporter substrate	
C[C@]12CC[C@H](OS(=O)(=O)O)CC1=CC[C@@H]1[C@@H]2CC[C@]2(C)C(=O)CC[C@@H]12 [PRASTERONE SULFURIC ACID]			Activity [5]: transporter substrate; Activity [6]: transporter substrate
Nc1nc2c(ncn2[C@@H]2O[C@@H]3COP(=O)(O)O[C@H]3[C@H]2O)c(=O)[nH]1			Activity [5]: transporter substrate
COc1cc([C@@H]2c3cc4c(cc3[C@@H](O[C@@H]3O[C@@H]5CO[C@@H](C)O[C@H]5[C@H](O)[C@H]3O)[C@H]3COC(=O)[C@H]23)OCO4)cc(OC)c1O [ETOPOSIDE]			Activity [4]: transporter substrate
CCOC(=O)[C@H](CCc1ccccc1)N[C@@H](C)C(=O)N1CCC[C@H]1C(=O)O	transporter substrate	transporter substrate	
CC(C)[C@H](N)C(=O)OCCOCn1cnc2c(=O)[nH]c(N)nc21 [VALACYCLOVIR]	transporter substrate	transporter substrate	
COc1cccc2c1C(=O)c1c(O)c3c(c(O)c1C2=O)C[C@@](O)(C(=O)CO)C[C@@H]3O[C@H]1C[C@H](N)[C@H](O)[C@H](C)O1 [DOXORUBICIN]			Activity [1]: transporter substrate
CN(CC(=O)O)C(=O)CN [GLYCYLSARCOSINE] (H-Gly-[Sar]-OH)	transporter substrate	transporter substrate	
NCC(=O)CCC(=O)O [AMINOLEVULINIC ACID]	transporter substrate	transporter substrate	
CN(C)C(=O)C(CCN1CCC(O)(c2ccc(Cl)cc2)CC1)(c1ccccc1)c1ccccc1 [LOPERAMIDE]			Activity [1]: transporter substrate
CC1=C(C(=O)O)N2C(=O)[C@@H](NC(=O)[C@H](N)c3ccccc3)[C@H]2SC1 [CEPHALEXIN ANHYDROUS]	transporter substrate	transporter substrate	
